Values quoted from earlier work in patent US20130190499A1, “Azaisoquinolinone derivatives as NK3 antagonists” (H. Lundbeck A/S, priority 2010, published 2013).

Target: T1, NK3 (Homo sapiens, UniProt P29371)
T1 sequence (P29371 1-465): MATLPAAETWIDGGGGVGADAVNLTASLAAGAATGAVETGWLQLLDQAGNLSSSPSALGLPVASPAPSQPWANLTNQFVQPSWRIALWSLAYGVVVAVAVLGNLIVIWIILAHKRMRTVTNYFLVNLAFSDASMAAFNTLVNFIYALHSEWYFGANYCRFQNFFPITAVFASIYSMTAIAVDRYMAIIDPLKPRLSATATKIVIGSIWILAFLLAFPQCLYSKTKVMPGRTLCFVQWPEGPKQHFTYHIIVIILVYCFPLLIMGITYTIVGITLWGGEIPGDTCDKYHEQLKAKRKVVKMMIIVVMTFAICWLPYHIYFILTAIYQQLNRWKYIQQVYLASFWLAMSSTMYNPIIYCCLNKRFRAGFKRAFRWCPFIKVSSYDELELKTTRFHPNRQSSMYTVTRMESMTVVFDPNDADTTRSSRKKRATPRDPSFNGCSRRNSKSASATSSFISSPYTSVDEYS

Effect in clinical trials, in particular on positive symptoms of psychosis (versus placebo, delusions, hallucinations and paranoia)	SMILES	Effect in clinical trials on cognitive behaviour of schizophrenics (schizophrenics)
superior to placebo	CC(=O)N(C)C1(c2ccccc2)CCN(CCC[C@]2(c3ccc(Cl)c(Cl)c3)CCCN(C(=O)c3ccccc3)C2)CC1 [Osanetant]	–
–	CC[C@H](NC(=O)c1c(O)c(-c2ccccc2)nc2ccccc12)c1ccccc1 [talnetant]	ameliorate the cognitive behaviour of schizophrenics
